Columns and labels:
[1] = cited from earlier work
[2] = MgCl2 and Hy-D dosed into the rumen of fistulated cattle: urine pH, urine and blood plasma minerals; format: in vivo
Description: Four mature rumen fistulated cattle (approximately 600 kg […] in individual pens and offered 12 kg/day of good quality lucerne chaff throughout the experiment. After a 2 week adaptation to this diet the following treatments were applied daily over 2 weeks to each animal in a Latin Square Design: 1. no supplement (control) 2. […] 3. […]® 1.25% (5 mg 25-hydroxy vitamin D3) MgCl2 plus […]® 1.25 % Each treatment was dosed into the rumen through a cannula each morning during the 2 week experimental period. […] Urine pH was measured at time of collection; blood plasma was decanted after centrifugation and analyzed for calcium, magnesium, potassium, sodium and phosphorus by inductively coupled plasma atomic emission spectrophotometry. The results were analysed as a latin square design making comparisons between treatments after removal of any animal or period effects. The lucerne […] assayed for macro cations together with chloride and sulphur concentrations.

[3] = blood samples on days 7, 13 and 14
[4] = urine samples on days 12, 13 and 14

## C=C1/C(=C\C=C2/CCC[C@]3(C)[C@@H]([C@H](C)CCCC(C)C)CC[C@@H]23)C[C@@H](O)C[C@@H]1O [1-α-hydroxy vitamin D3]
[1]
  activity relative to 25-hydroxy vitamin D3: approximately 10 times

## [Cl-].[Cl-].[Mg+2] [Mg, magnesium chloride]
[2]; [3]
  Blood Plasma composition Ca2+: 87 mg/L
  Blood Plasma composition K+: 233 mg/L
  Blood Plasma composition Mg2+: 19 mg/L
  Blood Plasma composition Na+: 2280 mg/L
  Blood Plasma composition Phosphorus: 74 mg/L
[2]; [4]
  Urine Composition Ca2+: 397b mg/L
  Urine Composition K+: 6652 mg/L
  Urine Composition Mg2+: 411 mg/L
  Urine Composition Na+: 444 mg/L
  Urine Composition Phosphorus: 190 mg/L
[2]; urine samples on days 12, 13 and 14, measured at time of collection
  Urine pH: 6.20b

## C=C1/C(=C\C=C2/CCC[C@]3(C)[C@@H]([C@H](C)CCCC(C)(C)O)CC[C@@H]23)C[C@@H](O)C[C@@H]1O [1-α-, 25-dihydroxy vitamin D3]
[1]
  activity relative to 25-hydroxy vitamin D3: approximately 10 times
